# Assays:
# Type in all cases: biochemical
# [1] = molecular target: T1, baculoviral GST-MLK1KD (Homo sapiens, UniProt P80192); experiment: Mixed Lineage Kinase-1 inhibition assay (Millipore Multiscreen TCA in-plate, 32P); settings: for MLK-1 Kinase % inhibition @ 1 uM: 1 uM compound, 60 μM ATP; for inhibition at 1 µM: read-out: MLK-1 Kinase % inhibition @ 1 uM
# T1 construct: 1 μg/ml of baculoviral GST-MLK1KD; GST (N); host or cells: baculovirus expression system
# Protocol: Inhibition of Mixed Lineage Kinase-1 Activity
# The kinase activity of MLK1 was assessed using the Millipore Multiscreen TCA “in-plate” format as described for protein kinase C (Pitt & Lee, J. Biomol. Screening, 1: 47-51, 1996). Briefly, each 50-μl assay mixture contained 20 mM Hepes, pH 7.0, 1 mM EGTA, 10 mM MgCl2, 1 mM DTT, 25 mM β-glycerophosphate, 60 μM ATP, 0.25 μCi [γ-^32P]ATP, 0.1% BSA, 500 μg/ml myelin basic protein (UBI #13-104), 2% DMSO, 1 μM of test compound, and 1 μg/ml of baculoviral GST-MLK1KD. Samples were incubated for 15 min at 37° C. The reaction was stopped by adding ice cold 50% TCA and the protein were allowed to precipitate for 30 min at 4° C. The plates were then washed with ice cold 25% TCA. Supermix scintillation cocktail was added, and the plates were allowed to equilibrate for 1-2 hours prior to counting using the Wallac MicroBeta 1450 PLUS scintillation counter.
# [2] = molecular target: T2, recombinant human baculoviral VEGFR2 cyctoplasmic domain (Homo sapiens, UniProt P35968); experiment: VEGFR2 kinase inhibition assay (ELISA-based, time-resolved fluorescence); settings: 1 uM compound, 30 μM ATP; for inhibition at 1 µM: read-out: VEGFR-2 kinase % inhibition @ 1 uM
# T2 construct: recombinant human baculoviral VEGFR2 cyctoplasmic domain; host or cells: baculovirus expression system
# T2 sequence (P35968 786-1356 limits assumed): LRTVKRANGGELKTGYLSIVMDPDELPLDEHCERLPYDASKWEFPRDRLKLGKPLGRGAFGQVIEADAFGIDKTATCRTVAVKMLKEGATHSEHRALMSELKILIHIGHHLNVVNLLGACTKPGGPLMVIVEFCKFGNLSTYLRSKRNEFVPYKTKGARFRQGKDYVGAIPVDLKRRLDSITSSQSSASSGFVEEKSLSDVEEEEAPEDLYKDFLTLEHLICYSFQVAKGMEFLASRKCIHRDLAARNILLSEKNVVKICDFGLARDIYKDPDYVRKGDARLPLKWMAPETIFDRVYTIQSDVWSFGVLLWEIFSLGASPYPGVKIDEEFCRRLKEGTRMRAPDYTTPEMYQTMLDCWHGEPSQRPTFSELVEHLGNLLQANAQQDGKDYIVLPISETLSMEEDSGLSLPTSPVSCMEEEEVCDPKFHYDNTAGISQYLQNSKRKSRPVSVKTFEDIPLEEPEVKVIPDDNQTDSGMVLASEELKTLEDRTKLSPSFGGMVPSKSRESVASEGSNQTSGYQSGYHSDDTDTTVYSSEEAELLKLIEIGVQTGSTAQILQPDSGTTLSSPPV
# Protocol: Inhibition of Vascular Endothelial Growth Factor Receptor-2 Kinase Activity
# Assay were performed as described for trkA kinase below. The 96-well microtiter plate (FluoroNUNC Maxisorp) was coated with 40 μg/ml recombinant human phospholipase C-γ1/glutathione S-transferase fusion protein. Inhibition studies were performed in 100 μl assay mixtures containing 50 mM HEPES, pH 7.4, 30 μM ATP, 10 mM MnCl2, 0.1% BSA, 2% DMSO, and 1 μM of test compound. The reaction was initiated by adding prephosphorylated recombinant human baculoviral VEGFR2 cyctoplasmic domain. The reaction was allowed to proceed for 15 minutes at 37° C. The detection antibody, eurpium-labeled anti-phosphotyrosine antibody (Wallac #CR04-100), was added at 1:5000 dilution in block buffer (3% BSA in TBST).
# [3] = molecular target: T3, baculoviral GST-MLK2KDLZ (Homo sapiens, UniProt Q02779); experiment: Mixed Lineage Kinase-2 inhibition assay (Millipore Multiscreen plate, 32P); settings: 1 uM compound, 100 μM ATP; for inhibition at 1 µM: read-out: MLK-2 Kinase % inhibition @ 1 uM
# T3 construct: 3 μg/ml of baculoviral GST-MLK2KDLZ; GST (N); host or cells: baculovirus expression system
# T3 sequence (Q02779 98-440 limits assumed): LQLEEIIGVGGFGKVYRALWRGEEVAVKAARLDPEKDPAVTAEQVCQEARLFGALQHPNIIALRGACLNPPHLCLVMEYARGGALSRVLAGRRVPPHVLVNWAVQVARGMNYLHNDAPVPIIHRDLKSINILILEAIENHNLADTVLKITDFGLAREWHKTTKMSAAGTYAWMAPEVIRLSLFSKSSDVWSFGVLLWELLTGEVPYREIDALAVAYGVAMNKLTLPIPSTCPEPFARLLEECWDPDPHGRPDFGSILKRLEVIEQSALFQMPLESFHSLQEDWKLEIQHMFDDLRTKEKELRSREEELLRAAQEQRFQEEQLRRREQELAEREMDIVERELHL
# Protocol: Inhibition of Mixed Lineage Kinase-2 Activity
# Assays were performed using the Millipore Multiscreen plate format as described for MLK1. Each 50-μl assay mixture contained 20 mM Hepes, pH 7, 1 mM EGTA, 10 mM MgCl2, 1 mM DTT, 25 mM β-glycerophosphate, 100 μM ATP, 0.25 μCi [γ-^32P]ATP, 0.1% BSA, 500 μg/ml myelin basic protein (UBI #13-104), 2% DMSO, various concentrations of test compound, and 3 μg/ml of baculoviral GST-MLK2KDLZ. Samples were incubated for 15 min. at 37° C. The reaction was stopped by adding ice cold 50% TCA and the proteins were allowed to precipitate for 30 min at 4° C. The plates were then washed with ice cold 25% TCA Supermix scintillation cocktail was added, and the plates were allowed to equilibrate for 1-2 hours prior to counting.
# T1 sequence (P80192 144-412 limits assumed): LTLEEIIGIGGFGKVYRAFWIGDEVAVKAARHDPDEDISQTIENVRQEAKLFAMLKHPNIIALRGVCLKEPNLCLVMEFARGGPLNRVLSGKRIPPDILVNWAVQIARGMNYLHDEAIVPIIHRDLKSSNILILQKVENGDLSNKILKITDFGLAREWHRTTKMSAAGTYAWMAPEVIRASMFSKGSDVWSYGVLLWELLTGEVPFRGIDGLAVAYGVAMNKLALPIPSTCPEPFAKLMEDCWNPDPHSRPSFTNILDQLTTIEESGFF
Compound,MLK-1 Kinase % inhibition @ 1 uM [1],VEGFR-2 kinase % inhibition @ 1 uM [2],MLK-2 Kinase % inhibition @ 1 uM [3],inhibition at 1 µM [1],inhibition at 1 µM [2],inhibition at 1 µM [3]
Cc1cc(C)c(C=C2C(=O)NN=C2c2cc(C)oc2C)[nH]1 [Compound 36],−9%,27%,−18%,,,
"Cc1cc(C)c(C=C2C(=O)NN=C2c2ccsc2)[nH]1 [Compound 37, 4-[(3,5-dimethylpyrrol-2-yl)methylene]-3-(3-thienyl)-2-pyrazolin-5-one]",,,,15%,62%,12%
"O=C1NN=C(c2cccs2)C1=Cc1c[nH]c2ccccc12 [Compound 38, 4-(indol-3-ylmethylene)-3-(2-thienyl)-2-pyrazolin-5-one]",,,,16%,42%,2%
Cc1cc(C)c(C=C2C(=O)NN=C2c2csc3ccccc23)[nH]1 [Compound 39],4%,13%,−7%,,,
Cc1cc(C)c(C=C2C(=O)NN=C2c2csc(-c3ccccc3)n2)[nH]1 [Compound 40],33%,26%,−8%,,,
Cc1cc(C)c(C=C2C(=O)NN=C2c2cc(-c3ccc(Cl)cc3)oc2C)[nH]1 [Compound 41],13%,13%,−15%,,,
Cc1oc(-c2ccc(Cl)cc2)cc1C1=NNC(=O)C1=Cc1c[nH]c2ccccc12 [Compound 42],−9%,28%,−10%,,,
O=C1NN=C(c2ccco2)C1=Cc1c[nH]c2ccc(OCc3ccccc3)cc12 [Compound 43],13%,25%,2%,,,
O=C1NN=C(c2ccco2)C1=Cc1c[nH]c2cccc(OCc3ccccc3)c12 [Compound 44],25%,18%,−3%,,,
Cn1cc(C=C2C(=O)NN=C2c2ccco2)c2ccccc21 [Compound 45],24%,72%,−22%,,,
Cc1ccc2c(C=C3C(=O)NN=C3c3ccco3)c[nH]c2c1 [Compound 46],13%,71%,2%,,,
Cc1cccc2c(C=C3C(=O)NN=C3c3ccco3)c[nH]c12 [Compound 47],33%,64%,−2%,,,
O=C1NN=C(c2ccco2)C1=Cc1c[nH]c2ccc(F)cc12 [Compound 48],2%,58%,3%,,,
O=C1NN=C(c2ccco2)C1=Cc1c[nH]c2ccc(Cl)cc12 [Compound 49],−10%,50%,3%,,,
COC(=O)c1ccc2c(C=C3C(=O)NN=C3c3ccco3)c[nH]c2c1 [Compound 50],11%,44%,−1%,,,
COc1ccc2[nH]cc(C=C3C(=O)NN=C3c3ccco3)c2c1 [Compound 51],26%,55%,3%,,,
CN(C)c1ccc(C=C2C(=O)NN=C2c2ccco2)cc1 [Compound 52],5%,19%,5%,,,
Cc1nc[nH]c1C=C1C(=O)NN=C1c1ccco1 [Compound 53],7%,34%,−13%,,,
O=C1NN=C(c2ccco2)C1=Cc1ncc[nH]1 [Compound 54],−12%,4%,−48%,,,

Compound,MLK-1 Kinase % inhibition @ 1 uM [1],VEGFR-2 kinase % inhibition @ 1 uM [2],MLK-2 Kinase % inhibition @ 1 uM [3],inhibition at 1 µM [1],inhibition at 1 µM [2],inhibition at 1 µM [3]
Cc1cc(C)c(C=C2C(=O)NN=C2c2cccn2C)[nH]1 [Compound 55],−5%,38%,2%,,,
Cn1cccc1C1=NNC(=O)C1=Cc1c[nH]c2ccc(F)cc12 [Compound 56],−22%,8%,−14%,,,
"Cc1cc(C)c(C=C2C(=O)NN=C2c2cc3ccccc3o2)[nH]1 [Compound 57, 3-benzo[d]furan-2-yl-4-[(3,5-dimethylpyrrol-2-yl)methylene]-2-pyrazolin-5-one]",,,,44%,30%,5%
O=C1NN=C(c2cc3ccccc3o2)C1=Cc1c[nH]c2ccccc12 [Compound 58],44%,47%,4%,,,
Cn1cc(C=C2C(=O)NN=C2c2cc3ccccc3o2)c2ccccc21 [Compound 59],41%,14%,−8%,,,
Cc1cc(C)c(C=C2C(=O)NN=C2c2cccs2)[nH]1 [Compound 61],8%,75%,−4%,,,
O=C1NN=C(c2cccs2)C1=Cc1c[nH]c2ccccc12 [Compound 62],15%,52%,−21%,,,
Cn1cc(C=C2C(=O)NN=C2c2cccs2)c2ccccc21 [Compound 63],14%,75%,1%,,,
N#CCCn1cc(C=C2C(=O)NN=C2c2nccs2)c2ccccc21 [Compound 64],10%,43%,9%,,,
N#CCCn1cc(C=C2C(=O)NN=C2c2ccoc2)c2ccccc21 [Compound 65],10%,43%,−3%,,,
N#CCCn1cc(C=C2C(=O)NN=C2c2cccs2)c2ccccc21 [Compound 66],11%,32%,5%,,,
N#CCCn1cc(C=C2C(=O)NN=C2c2ccco2)c2ccccc21 [Compound 67],3%,20%,−1%,,,
O=C1NN=C(c2ccoc2)C1=Cc1cn(Cc2ccccc2)c2ccccc12 [Compound 68],17%,26%,16%,,,
O=C1NN=C(c2ccco2)C1=Cc1cn(Cc2ccccc2)c2ccccc12 [Compound 69],21%,5%,4%,,,
O=C1NN=C(c2nccs2)C1=Cc1cn(Cc2ccccc2)c2ccccc12 [Compound 70],21%,51%,5%,,,
O=C1NN=C(c2ccco2)C1=Cc1cn(CCOCc2ccccc2)c2ccccc12 [Compound 71],9%,−1%,3%,,,
O=C1NN=C(c2nccs2)C1=Cc1cn(CCOCc2ccccc2)c2ccccc12 [Compound 72],14%,3%,3%,,,
CC(C)Cn1cc(C=C2C(=O)NN=C2c2nccs2)c2ccccc21 [Compound 73],−1%,15%,12%,,,

# From patent US6831075B2, “Heterocyclic substituted pyrazolones” (Cephalon, Inc., priority 1999, dated 2004)
